Patent US10912818B2, “Use of microorganisms for the prevention and treatment of intestinal diseases” (Ludwig Stocker Hofpfisterei GmbH, priority 2013, dated 2021)
Entries after “also recorded” stand apart in the source; their conditions may differ.

Tests used:
[1] = tested on: corpus circular muscle preparations; experiment: Motility: contractile force of corpus circular muscle preparations in organ bath; format: cell-based, guinea pig
[2] = tested on: distal colon mucosa/submucosa preparations; experiment: Ussing chamber: short circuit current (chloride ion secretion) across colonic mucosa/submucosa preparations; format: cell-based, guinea pig

| SMILES | Effect of TTX pre-treatment on muscle contraction stimulated by ACH and extracts [1] | Effect of atropine pre-treatment on muscle contraction stimulated by ACH and extracts [1] | Effect of atropine applied mucosally on secretion stimulated by ACH applied serosally [2] | Effect of atropine applied on mucosal side on secretion stimulated from the mucosal side [2] | Effect of atropine applied on serosal side on secretion stimulated from the mucosal side [2] | Effect of atropine pre-treatment on secretion stimulated by ACH and extracts [2] |
| --- | --- | --- | --- | --- | --- | --- |
| NC1=N[C@H](O)[C@H]2[C@H]3O[C@]4(O)O[C@@H]([C@@H](O)[C@@]2(N1)[C@@H]4O)[C@]3(O)CO [TTX, Tetrodotoxin] | no significant effect |  |  |  |  |  |
| CN1[C@@H]2CC[C@H]1C[C@@H](OC(=O)C(CO)c1ccccc1)C2 (stereo partly drawn) [atropine] |  | completely abrogated stimulation; also recorded: completely abolished | secretion was inhibited | only partially inhibiting ACH activity; also recorded: not mucosally | significantly inhibited; also recorded: completely abrogated secretion | completely abolished the response; also recorded: completely abrogated secretion stimulation |
